Columns and labels:
[1] = system: FL-mda-7 promoter; assay: FL-mda-7 promoter luciferase reporter assay, transient transfection; assay type: cell-based, human; conditions: HO-1 and MeWo cells, 48 hr treatment, relative to uninduced; IFN-β 2000 units/ml, MEZ 10 ng/ml
Procedure: The effect of differentiation inducer drug treatment on full length mda-7 promoter activity. Fold induction of the FL-mda-7 promoter relative to the pGL3-Basic plasmid with or without differentiation inducer drug treatment in HO-1 (FIG. 1A) or MeWo (FIG. 1B) human melanoma cells. Luciferase assays were performed as previously described (Gopalkrishnan et al., 1999). In brief, the promoter-containing plasmids were transiently transfected into the different cell types using Superfect^R (Qiagen) according to the manufacturer's protocol. The cells were treated with differentiation inducers (IFN-β, 2000 units/ml; MEZ, 10 ng/ml; or IFN-β+MEZ, 2000 units/ml+10 ng/ml) for 48 h following transfection and assayed for luciferase activity using the Luc+Assat Kit (Promega). The SV40-p-Galactosidase plasmid was co-transfected with the luciferase constructs and used to normalize for variations in transfection efficiencies between experiments. […]
The presumptive promoter fragment was assayed for promoter activity using a heterologous gene reporter system (pGL3-Basic, luciferase assay system, Promega). […] The transfection efficiency was determined by cotransfection with RSV-β-galactosidase (Tropics β-Gal assay kit) and the relative luciferase activity was computed after correction for variations in transfection efficiencies.

[2] = system: mda-7 gene; assay: Nuclear run-on assay of mda-7 transcription; assay type: cell-based, human; conditions: HO-1 cells, 24 h treatment, versus uninduced control
Procedure: (FIG. 2A) Nuclear run-on assays using nuclei isolated from Control or 24 h after treatment with IFN-β, MEZ or IFN-β+MEZ, the same concentrations as indicated in FIG. 1. GAPDH was used as an internal control. In vitro transcription assays were performed as previously described (Jiang et al., 1993). […] GAPDH was used as an internal loading control.
Transcription of the housekeeping gene, GAPDH served as an internal control.

[3] = system: mda-7 mRNA; assay: RT-PCR followed by Southern blotting of mda-7 mRNA; assay type: cell-based, human; conditions: HO-1 cells, compared to IFN-β+MEZ treated samples
Procedure: (FIG. 2B) Mda-7 message expression detected by Northern blotting and RT-PCR followed by Southern blotting. Total RNA from control (FIG. 2C) HO-1 cells and cells treated with IFN-β (I), MEZ (M) or IFN-β+MEZ (I+M) were analyzed by Northern blotting or RT-PCR/Southern using radiolabeled mda-7 cDNA as a probe as previously described (Jiang et al., 1993, 1995a; Kang et al., 1998a). GAPDH was used as an internal loading control.
To determine the possible presence of trace amounts of mda-7 mRNA in response to differentiation inducer treatment (IFN-β) and in the absence of treatment, a more sensitive method of message detection was employed, i.e., RT-PCR followed by Southern blotting.
Nucleic acid analysed. Total cytoplasmic RNA was prepared by the guanidinium-HCL extraction method followed by Northern blotting or RT-PCR analysis using previously published protocols (12, 18, 22). For Northern blots, 15 mg of RNA was denatured with glyoxal/DMSO, electrophoresed on 1% agarose gels, transferred to nylon membranes and hybridized with ^32P-dCTP labeled cDNA probes.

[4] = system: mda-7-ARE-3'-UTR; assay: Luciferase-mda-7-ARE-3'UTR reporter assay; assay type: cell-based, human; conditions: HO-1 cells
Excerpt: Posttranscriptional regulation of Luciferase mRNA as a consequence of mda-7-3′ UTR addition at its 3′-end. The Luciferase expression plasmid having SV40 polyadenylation signal sequence was replaced with the 3′-UTR region (approximately 900 bp) of mda-7. […] (FIG. 3A) Mda-7 3′-UTR mediated destabilization of luciferase mRNA was computed as fold induction of luciferase enzyme activity, which is seen only when stable luciferase mRNA, is synthesized. […] (FIG. 3B) Kinetic analysis of luciferase activity (as fold-induction) of the mda-7 promoter-luciferase-ARE-3′-UTR construct as a function of time of treatment with IFN-β+MEZ. Luciferase assays were performed as described by Gopalkrishnan et al. (1999) and briefly in the legend to FIGS. 1A-1B.
To examine the posttranscriptional regulation of mda-7 mRNA specifically during terminal differentiation of human melanoma cells, we constructed a Luciferease-mda-7-ARE-3′UTR plasmid under transcriptional control of either the FL-mda-7 promoter (FIG. 3) or the SV40 large T-antigen promoter. These plasmids were co-transfected into HO-1 cells and treated with differentiation inducers.

[5] = system: C/EBP-β/LAP; assay: Western blotting of C/EBP-β/LAP protein in whole cell lysates; assay type: cell-based, human; conditions: HO-1 cells, 24 h treatment
Procedure: (§1) FIGS. 8A-8C. Protein expression pattern of the transcription factors cJun/AP-1 and C/EBP-β and their ability to transactivat the mda-7 promoter. [FIG. 8A] Whole cell lysates from HO-1 control cells (C) and those treated with IFN-β (I), MEZ (M), IFN-β+MEZ (I+M) or TPA were resolved on a 4-20% SDS-PAGE gel and transblotted onto nitrocellulose filters. Immobilized proteins were then analyzed by Western blotting using commercially available cJun/AP-1 and C/EBP-β specific antibodies. […] Equal protein loading was determined by Coomassie blue staining of a parallel gel. [FIG. 8B] […]
(§2) Electrophoresis and immunoblotting. Equal amounts of whole cell proteins were analyzed by sodium dodecylsulfate-polyacrylamide gel electrophoresis (SDS-PAGE, 4-20% gradient gel; Novex) and electrotransferred onto ECL grade nitrocellulose (Amersham) as described previously (24). […]
(§3) AP-1 and C/EBP families of transcription factors are responsible for mda-7 promoter activation during human melanoma differentiation. […] Western blot analyses of whole cell lysates (equal protein loading was verified by Coomassie blue staining of a parallel gel, data not shown) from uninduced HO1 cells and cultures treated for 24 h with IFN-β, MEZ, IFN-β+MEZ or TPA were analyzed using anti-cJun/AP-1, anti-C/EBP-α or anti-C/EBP-β antibodies. […]

[6] = system: mda-7 mRNA; assay: Northern blotting of mda-7 message; assay type: cell-based, human; conditions: HO-1 cells, 24 h treatment
Excerpt: FIGS. 5A-5B. Message and protein expression analyses of mda-7 during melanoma terminal differentiation. (FIG. 5A) Northern blotting analysis of mda-7 message expression. Total RNA was isolated from HO-1 cells that were uninduced (C) or treated with IFN-β (I), MEZ (M) or IFN-β+MEZ (I+M) and analyzed by Northern blotting. 28S RNA was used as a loading control. Mda-7 message was detected using a random primed [^32P]-labeled mda-7 cDNA probe (18). (FIG. 5B) Indirect immunofluorescence visualization of MDA-7 protein subcellular localization. Both uninduced HO-i cells (Control; A and S) and terminally differentiated (48 h IFN-β+MEZ treated; C and D) were immuno-labeled using anti-MDA-7 specific monoclonal antibody. Anti-mouse secondary antibodies conjugated with Rhodamine enabled visualization of MDA-7 protein localization (A and C) and the DNA specific dye, DAPI was used to stain nuclei (B and D). With the exception of a cell undergoing mitosis no other cells reveal MDA-7 staining in control cultures (A and B). Terminally differentiated cells in (C) and (D) show strong punctate MDA-7 staining within the nucleus (See enlargement below (C) and (D) of a single nucleus). The arrow points to the punctate bodies to which MDA-7 localizes in the nucleus and their coincidence with DAPI bright staining regions.
Nucleic acid analysed. […]

[7] = system: HO-1 cells; conditions: cited from earlier work
[8] = system: cJun/AP-1; assay: Western blotting of cJun/AP-1 protein in whole cell lysates; assay type: cell-based, human; conditions: HO-1 cells, 24 h treatment, compared to uninduced controls
Procedure: as §1, §2, §3

[9] = system: mda-7 mRNA; assay: Effect of cycloheximide on mda-7 mRNA stability, Northern blotting; assay type: cell-based, human; conditions: MEZ treated HO-1 cells, cycloheximide 10 μg/ml for 3 h; lesser extent in control and IFN-β treated samples
Procedure: (§4) FIGS. 4A-4B. Effect of actinomycin D and cycloheximide on th half-life and stability of the mda-7 message. […] Northern blotting analyses were performed on total RNA isolated from control (C)HO-1 or cells treated with IFN-β (I), MEZ (M) or IFN-β+MEZ (I+M), at the same concentrations as in FIG. 1. Twenty-four h after exposure to the inducing agent(s), acitnomycin D (Act.D, 5 μg/ml) was added (+Act.D) for 30 minutes (30′) or one h (1′). Mda-7 expression was detected using a radiolabeled mda-7 cDNA probe as previously described (Jiang et al., 1995a). rRNA visualized by ethidium bromide was used as a loading control. (FIG. 4B) Effect of cycloheximide treatment on mda-7 mRNA stability relative to p21/mda-6 Untreated control (C)HO-1 cells or cells treated for 24 h with IFN-β (I), MEZ (M) or IFN-β+MEZ at the same concentrations as in FIGS. 1A-1B. After 24 h induction, cells were treated with or without cycloheximide (10 μg/ml) for 3 h and total RNA was isolated and analyzed by Northern blotting. Mda-7 expression was detected using a radiolabeled mda-7 cDNA probe (Jiang et al., 1995a). The blot was allowed to decay for 3 months, and then reprobed using a radiolabeled probe against a p21/mda-6 cDNA (Jiang et al., 1995b). rRNA visualized by ethidium bromide was used as a loading control. […]

[10] = system: p21/Waf1/Cip1/mda-6; assay: Effect of cycloheximide on p21/mda-6 message, Northern blotting; assay type: cell-based, human; conditions: HO-1 cells, cycloheximide 10 μg/ml for 3 h
Procedure: as §4

[11] = system: mda-7 promoter; assay: mda-7 promoter activity on IL-6 treatment; assay type: cell-based; conditions: cells treated with IL-6, unpublished data
Procedure: It appears that C/EBP-B/LAP binding sites at a distance from the TATA element are responsible for mda-7 expression in terminally differentiated human melanoma cells. Another line of evidence supporting the involvement of the C/EBP gene family in melanoma terminal differentiation is apparent from increased levels of C/EBP-B/LAP protein in HO-1 cells as early as 24 h after treatment with IFN-β+MEZ when compared to cells treated with IFN-β, MEZ or TPA. The transcription factor C/EBP is a heat-stable, sequence-specific DNA-binding protein first purified from rat liver nuclei (39). C/EBP regulates gene expression in a variety of tissues including liver, adipose, lung and intestine (40). This transcription factor appears to function exclusively in differentiated and growth-arrested cells (40). […] It is the ratio of LIP/LAP that is important in C/EBP-mediated gene expression. In the case of terminally differentiated HO-1 melanoma cells, we were unable to detect any LIP protein. The present studies provide evidence that the C/EBP gene family members, C/EBP-B/LAP in particular, play a major role during melanoma terminal differentiation. C/EBP-a and -B can both directly induce the mda-7 promoter as shown by ectopic expression analyses. […]

For C=C(C)[C@@]12O[C@@]3(c4ccccc4)O[C@@H]1[C@@H]1[C@@H]4O[C@]4(CO)[C@@H](O)[C@]4(O)C(=O)C(C)=C[C@H]4[C@@]1(O3)[C@H](C)[C@H]2OC(=O)/C=C/C=C/c1ccccc1 [MEZ, mezerein], the “activity of the FL-mda-7 promoter (luciferase)” value [1] was “only small changes”, the “rate of mda-7 transcription” value [2] was “the same” and the “mda-7 mRNA by RT-PCR” value [3] was “lower levels”. For the same compound, the “luciferase enzyme activity of Luciferase-mda-7-ARE-3'UTR construct” value [4] was “minimal”, the “level of C/EBP-β/LAP protein” value [5] was “approximately 3 fold” and the “mda-7 message by Northern blotting” value [6] was “Quantitatively less”. For the same compound, the “growth suppression and differentiation” value [7] was “reversible”.
In the case of CCCCCCCCCCCCCC(=O)O[C@@H]1[C@@H](C)[C@@]2(O)[C@@H](C=C(CO)C[C@]3(O)C(=O)C(C)=C[C@@H]23)[C@@H]2C(C)(C)[C@]12OC(C)=O [TPA], the “level of cJun/AP-1 protein” value [8] is reported as “only marginally increased”.
In the case of C[C@@H]1C[C@@H]([C@H](O)CC2CC(=O)NC(=O)C2)C(=O)[C@@H](C)C1 [cycloheximide], the “accumulation of mda-7 mRNA” value [9] is reported as “visibly increased” and the p21/mda-6 message accumulation [10] is reported as “does not show message accumulation”.
In the case of IL-6: potent inducer of NF-IL6, the mda-7 promoter activity [11] is reported as “induced”.
